Data as given in patent publication US20210379068A1, “METHODS AND MATERIALS FOR TREATING NEUROPSYCHIATRIC DISORDERS” (Mayo Foundation for Medical Education and Research, priority 2018, published 2021).
Entries after “also recorded” stand apart in the source; their conditions may differ.

Assays:
Format in all cases: in vivo, mouse
HFD-fed INK-ATTAC mice = assay: Elevated plus maze, chow/HFD INK-ATTAC mice treated with AP20187; settings: INK-ATTAC mice on HFD; AP20187 10 mg/kg i.p. vs vehicle
Method: (§1) INK-ATTAC mice were injected intraperitoneally (i.p.) with AP20187 (10 mg/kg) or vehicle for 3 days every 2 weeks for a total of 8-10 weeks.
A grey colored elevated plus maze apparatus was used. Two open arms (25×5 cm) and two closed arms (25×5 cm) were attached at right angles to a central platform (5×5 cm). The apparatus was set 40 cm above the floor. Mice were first acclimatized to the room for 1-1.5 hours. Mice were then placed individually on the central platform with their back to one of the open arms. Before the test, mice were habituated for 1 minute to the maze, then placed back in the home cage for 5 minutes. Mice were tested for 5 minutes during which they could freely explore the apparatus. Tracking software (Ethovision) recognizes mouse head, central body point, and the base of the tail. Anxiety was quantified by frequency of and time spent during head pokes/dips toward open arms. Higher anxiety is indicated by a lower frequency of movement into open arms and less time spent there.

INK-ATTAC mice = assay: Stone's T-maze, INK-ATTAC mice treated with AP20187; settings: chow/HFD INK-ATTAC mice; AP20187 vs vehicle
Method: as §1
A water-motivated version of the Stone's T-maze was used to measure parameters of cognition. A straight run (for pre-training) or Stone's T-maze were placed into a steel pan filled with water to a depth of approximately 3 cm so that half the height of the interior walls of the maze were under water. The ceilings of both the straight run and maze were covered with clear acrylic to prevent mice from rearing out of the water. These dimensions created a situation that enables the mice to maintain contact with the floor while keeping their heads above water. The mice were placed into a start box and were pushed into the maze using a sliding panel. At the end of the straight run or maze there was a goal box that contains a ramp to a dry floor, which allows the mice to escape from the water upon successful completion of the straight run or maze. On day one, mice underwent straight run training to establish the concept that moving forward allows them to escape the water by reaching a water-free goal box. Successful completion of this phase requires the mice to reach the goal box in 10 seconds or faster in 8 out of 10 trials. […] Maze training commenced the following day. Mice had to complete 9 maze acquisition trials in a single day. […]

[1] = system: senescent cells in the hypothalamus; assay: TAF in hypothalamus close to the 3rd ventricle, INK-ATTAC mice; settings: HFD INK-ATTAC mice, AP20187 vs vehicle
Method: as §1
Paraffin sections were deparaffinized with Histoclear and hydrated in an ethanol gradient followed by water and PBS. Antigen was retrieved by incubation in 0.01M citrate buffer (pH 6.0) at 95° C. for 10 minutes. Slides were placed in blocking buffer (1:60 normal goat serum [S-1000, Vector Laboratories] in 0.1% BSA/PBS) for 60 minutes at room temperature. […] Primary antibodies used (Table 2) were diluted in blocking buffer and applied overnight at 4° C. The next day, slides were washed 3 times with PBS and incubated for 30 minutes with secondary goat, anti-rabbit antibody (1:200; Vector Laboratories #BA-1000) for TAF staining or for 60 minutes with secondary Alexa antibody (Table 1). For TAF staining, Fluorescein-Avidin in PBS (1:500; #A-2011, Vector Lab) was applied to each sample for 20 minutes. Slides were washed 3 times in PBS, which was followed by FISH for TAF detection. Briefly, tissues were crosslinked with 4% paraformaldehyde for 20 minutes and dehydrated in graded ethanol. Sections were denatured for 10 minutes at 80° C. in hybridization buffer (70% formamide (Sigma), 25 mM MgCl2, 0.1 M Tris (pH 7.2), and 5% blocking reagent [Roche]) containing 2.5 μg ml^−1 Cy-3-labelled telomere-specific (CCCTAA) peptide nucleic acid probe (Panagene), followed by hybridization for 2 hour at room temperature in the dark. Slides were washed twice with 70% formamide in 2×SSC for 15 minutes, followed by washes in 2×SSC and PBS for 10 minutes. Sections were mounted in Vectashield, DAPI-containing mounting media and imaged.
A single, 3 μm-thick section per mouse was used for TAF staining, while for Dcx and Plin2 staining was performed on three 10 μm-thick sections 80 μm-apart. To quantify periventricular lipid accumulation 10-30 images in the periventricular region were taken using the DM5500 widefield fluorescence microscope from Leica with a 10× (for frequency of periventricular glia) or ×40 (for ALISE phenotype of ependymal cells) objective lens. Number of Plin2-positive cells (for frequency of ALISE-positive periventricular glia) or area of Plin2-positive vesicles (for ALISE phenotype of ependymal cells) was assessed using ImageJ software. For identity assessment of Plin2+ cells, 10 μm-thick sections were stained with combination of antibodies for Iba1 (secondary antibody conjugated with Alexa Fluor 488), Plin2 (secondary antibody conjugated with Alexa Fluor 594), and Vimentin (secondary antibody conjugated with Alexa Fluor 647) and quantified for frequency of Plin2+ astrocytes (Iba1−, Vim+) and microglia (Iba1+) in the periventricular region. A separate staining for Plin2 (secondary antibody conjugated with Alexa Fluor 594) and NeuN (secondary antibody conjugated with Alexa Fluor 647) was used to determine frequency of Plin2+ neurons in periventricular region. For TAF quantification in depth Z stacking was used (images were captured as stacks separated by 0.4 μm with ×63 objective) followed by ImageJ analysis.

CC[C@H](C(=O)N1CCCC[C@H]1C(=O)O[C@H](CCc1ccc(OC)c(OC)c1)c1cccc(OCC(=O)NCC(CNC(=O)COc2cccc([C@@H](CCc3ccc(OC)c(OC)c3)OC(=O)[C@@H]3CCCCN3C(=O)[C@@H](CC)c3cc(OC)c(OC)c(OC)c3)c2)CN(C)C)c1)c1cc(OC)c(OC)c(OC)c1 [AP]
anxiety-like phenotype: frequency of head entries/pokes into the open arms, EPM (HFD-fed INK-ATTAC mice): increased; also recorded: significantly decreased the anxiety-like phenotype | time mice spent with their heads in open area, EPM (HFD-fed INK-ATTAC mice): increased | short-term memory (Stone's maze: time to finish, frequency of errors) (INK-ATTAC mice): not affected; also recorded: not altered | % of NeuN-neg cells with 2 or more TAF, hypothalamus close to the 3rd ventricle [1]: significant decrease | % of NeuN-pos cells with 2 or more TAF, hypothalamus close to the 3rd ventricle [1]: significant decrease | mean number of TAF in NeuN-neg cells, hypothalamus close to the 3rd ventricle [1]: significantly reduced | mean number of TAF in NeuN-pos cells, hypothalamus close to the 3rd ventricle [1]: significantly reduced | % of NeuN-neg cells with 2 or more TAF, hypothalamus close to the 3rd ventricle ([1]; listed as AP20187): significantly reduced | % of NeuN-pos cells with 2 or more TAF, hypothalamus close to the 3rd ventricle ([1]; listed as AP20187): significantly reduced
